We go through 8 compounds from ChEMBL document CHEMBL3608278 (J Med Chem, 2015).

For assay [1], the target named is T1, Potassium voltage-gated channel subfamily A member 3 (Homo sapiens, UniProt P22001). It counts as cell-based, CHO-K1.
The target in assay [2] is T1, Potassium voltage-gated channel subfamily A member 3. On the set-up: species or system Blood.
For assay [3] the target is unchanged. The assay can be described thus: cell-based. Further details: species or system Blood.

T1 sequence (P22001 whole entry): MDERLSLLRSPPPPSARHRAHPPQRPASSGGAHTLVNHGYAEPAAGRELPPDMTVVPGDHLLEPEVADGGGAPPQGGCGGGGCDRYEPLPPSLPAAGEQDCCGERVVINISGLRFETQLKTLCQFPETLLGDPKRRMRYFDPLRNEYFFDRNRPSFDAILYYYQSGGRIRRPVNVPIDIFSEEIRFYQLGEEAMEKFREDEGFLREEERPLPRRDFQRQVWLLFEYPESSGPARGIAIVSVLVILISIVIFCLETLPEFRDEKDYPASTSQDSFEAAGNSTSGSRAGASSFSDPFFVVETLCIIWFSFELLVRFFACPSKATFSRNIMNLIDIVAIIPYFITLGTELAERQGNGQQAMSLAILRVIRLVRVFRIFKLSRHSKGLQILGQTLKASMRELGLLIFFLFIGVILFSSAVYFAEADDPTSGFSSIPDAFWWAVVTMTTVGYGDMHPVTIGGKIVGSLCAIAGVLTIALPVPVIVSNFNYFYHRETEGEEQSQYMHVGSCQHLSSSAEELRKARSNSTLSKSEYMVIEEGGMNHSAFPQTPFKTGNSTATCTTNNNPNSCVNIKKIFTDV

With `CC[C@H](C)[C@@H]1NC(=O)[C@@H](NC(=O)[C@H](CO)NC(=O)[C@@H](N)CCCNC(=N)N)CSSC[C@@H](C(=O)O)NC(=O)[C@H]([C@@H](C)O)NC(=O)CNC(=O)[C@@H]2CSSC[C@@H]3NC(=O)[C@H](CCC(N)=O)NC(=O)[C@H](Cc4ccccc4)NC(=O)[C@H](C)NC(=O)[C@H]([C@@H](C)O)NC(=O)[C@H](CSSC[C@H](NC(=O)[C@H](Cc4ccccc4)NC(=O)[C@H](CO)NC(=O)[C@H](CC(C)C)NC(=O)[C@H](CCCNC(=N)N)NC(=O)[C@H](Cc4ccc(O)cc4)NC(=O)[C@H](CCCCN)NC(=O)[C@H](CCSC)NC(=O)[C@H](CCC(=O)O)NC(=O)[C@H](Cc4cnc[nH]4)NC(=O)[C@H](CCCCN)NC3=O)C(=O)N[C@@H](CCCNC(=N)N)C(=O)N[C@@H](CCCCN)C(=O)N[C@@H]([C@@H](C)O)C(=O)N2)NC(=O)[C@H](CCCNC(=N)N)NC(=O)[C@H](CO)NC(=O)[C@H](CCCCN)NC(=O)[C@@H]2CCCN2C(=O)[C@H]([C@@H](C)CC)NC(=O)[C@H]([C@@H](C)O)NC(=O)[C@H](CC(=O)O)NC1=O`, the values for the concentration for half-maximal inhibition (IC50) in assay [1], in assay [2] and in assay [3] were more than 3.33 nM, more than 92 nM and more than 92 nM, respectively.

As for `CC[C@H](C)[C@@H]1NC(=O)[C@@H](NC(=O)[C@H](CO)NC(=O)[C@@H](N)CCCNC(=N)N)CSSC[C@@H](C(=O)O)NC(=O)[C@H]([C@@H](C)O)NC(=O)CNC(=O)[C@@H]2CSSC[C@@H]3NC(=O)[C@H](CCC(N)=O)NC(=O)[C@H](Cc4ccccc4)NC(=O)[C@H](C)NC(=O)[C@H]([C@@H](C)O)NC(=O)[C@H](CSSC[C@H](NC(=O)[C@H](Cc4ccccc4)NC(=O)[C@H](CO)NC(=O)[C@H](CC(C)C)NC(=O)[C@H](CCCNC(=N)N)NC(=O)[C@H](Cc4ccc(O)cc4)NC(=O)[C@H](CCCCN)NC(=O)[C@H](CCSC)NC(=O)[C@H](CO)NC(=O)[C@H](Cc4cnc[nH]4)NC(=O)[C@H](CCCCN)NC3=O)C(=O)N[C@@H](CCCNC(=N)N)C(=O)N[C@@H](CCCCN)C(=O)N[C@@H]([C@@H](C)O)C(=O)N2)NC(=O)[C@H](CCCNC(=N)N)NC(=O)[C@H](CO)NC(=O)[C@H](CCCCN)NC(=O)[C@@H]2CCCN2C(=O)[C@H]([C@@H](C)CC)NC(=O)[C@H]([C@@H](C)O)NC(=O)[C@H](CCC(=O)O)NC1=O`, the IC50 (commonly the point on the concentration scale where inhibition reaches its midpoint) in assay [1] is more than 3.33 nM; in assay [2] it was more than 24.6 nM; in assay [3] it was 16.9 nM.

For `CC[C@H](C)[C@@H]1NC(=O)[C@@H](NC(=O)[C@H](CO)NC(=O)[C@@H](N)CCCNC(=N)N)CSSC[C@@H](C(=O)O)NC(=O)[C@H]([C@@H](C)O)NC(=O)CNC(=O)[C@@H]2CSSC[C@@H]3NC(=O)[C@H](CCC(N)=O)NC(=O)[C@H](Cc4ccccc4)NC(=O)[C@H](C)NC(=O)[C@H]([C@@H](C)O)NC(=O)[C@H](CSSC[C@H](NC(=O)[C@H](Cc4ccccc4)NC(=O)[C@H](CO)NC(=O)[C@H](CC(C)C)NC(=O)[C@H](CCCNC(=N)N)NC(=O)[C@H](Cc4ccc(O)cc4)NC(=O)[C@H](CCCCN)NC(=O)[C@H](CCSC)NC(=O)[C@H](CO)NC(=O)[C@H](Cc4cnc[nH]4)NC(=O)[C@H](CCCCN)NC3=O)C(=O)N[C@@H](CCCNC(=N)N)C(=O)N[C@@H](CCCCN)C(=O)N[C@@H]([C@@H](C)O)C(=O)N2)NC(=O)[C@H](CCCNC(=N)N)NC(=O)[C@H](CO)NC(=O)[C@H](CCCCN)NC(=O)[C@@H]2CCCN2C(=O)[C@H](CCC(=O)O)NC(=O)[C@H]([C@@H](C)O)NC(=O)[C@H](CC(=O)O)NC1=O`, the IC50 was 1.31 nM in assay [1], 19.5 nM in assay [2] and 5 nM in assay [3].

`CC[C@H](C)[C@@H]1NC(=O)[C@@H](NC(=O)[C@H](CO)NC(=O)[C@@H](N)CCCNC(=N)N)CSSC[C@@H](C(=O)O)NC(=O)[C@H]([C@@H](C)O)NC(=O)CNC(=O)[C@@H]2CSSC[C@@H]3NC(=O)[C@H](CCC(N)=O)NC(=O)[C@H](Cc4ccccc4)NC(=O)[C@H](C)NC(=O)[C@H]([C@@H](C)O)NC(=O)[C@H](CSSC[C@H](NC(=O)[C@H](Cc4ccccc4)NC(=O)[C@H](CO)NC(=O)[C@H](CC(C)C)NC(=O)[C@H](CCCNC(=N)N)NC(=O)[C@H](Cc4ccc(O)cc4)NC(=O)[C@H](CCCCN)NC(=O)[C@H](CCSC)NC(=O)[C@H](CO)NC(=O)[C@H](Cc4cnc[nH]4)NC(=O)[C@H](CCCCN)NC3=O)C(=O)N[C@@H](CCCNC(=N)N)C(=O)N[C@@H](CCCCN)C(=O)N[C@@H]([C@@H](C)O)C(=O)N2)NC(=O)[C@H](CCCNC(=N)N)NC(=O)[C@H](CO)NC(=O)[C@H](CCC(=O)O)NC(=O)[C@@H]2CCCN2C(=O)[C@H]([C@@H](C)CC)NC(=O)[C@H]([C@@H](C)O)NC(=O)[C@H](CC(=O)O)NC1=O`: the results for the IC50 in assay [1], in assay [2] and in assay [3] were 0.146 nM, 0.056 nM and 0.037 nM, respectively.

Take `CC[C@H](C)[C@@H]1NC(=O)[C@@H](NC(=O)[C@H](CO)NC(=O)[C@@H](N)CCCNC(=N)N)CSSC[C@@H](C(=O)O)NC(=O)[C@H]([C@@H](C)O)NC(=O)CNC(=O)[C@@H]2CSSC[C@@H]3NC(=O)[C@H](CCC(N)=O)NC(=O)[C@H](Cc4ccccc4)NC(=O)[C@H](C)NC(=O)[C@H]([C@@H](C)O)NC(=O)[C@H](CSSC[C@H](NC(=O)[C@H](Cc4ccccc4)NC(=O)[C@H](CO)NC(=O)[C@H](CC(C)C)NC(=O)[C@H](CCCNC(=N)N)NC(=O)[C@H](Cc4ccc(O)cc4)NC(=O)[C@H](CCCCN)NC(=O)[C@H](CCSC)NC(=O)[C@H](CO)NC(=O)[C@H](Cc4cnc[nH]4)NC(=O)[C@H](CCCCN)NC3=O)C(=O)N[C@@H](CCCNC(=N)N)C(=O)N[C@@H](CCCCN)C(=O)N[C@@H]([C@@H](C)O)C(=O)N2)NC(=O)[C@H](CCC(=O)O)NC(=O)[C@H](CO)NC(=O)[C@H](CCCCN)NC(=O)[C@@H]2CCCN2C(=O)[C@H]([C@@H](C)CC)NC(=O)[C@H]([C@@H](C)O)NC(=O)[C@H](CC(=O)O)NC1=O`: the values for the IC50 in assay [1], in assay [2] and in assay [3] were 0.983 nM, 4.54 nM and 1.32 nM, respectively.

With `CC[C@H](C)[C@@H]1NC(=O)[C@@H](NC(=O)[C@H](CO)NC(=O)[C@@H](N)CCCNC(=N)N)CSSC[C@@H](C(=O)O)NC(=O)[C@H]([C@@H](C)O)NC(=O)CNC(=O)[C@@H]2CSSC[C@@H]3NC(=O)[C@H](CCC(N)=O)NC(=O)[C@H](Cc4ccccc4)NC(=O)[C@H](C)NC(=O)[C@H](CCC(=O)O)NC(=O)[C@H](CSSC[C@H](NC(=O)[C@H](Cc4ccccc4)NC(=O)[C@H](CO)NC(=O)[C@H](CC(C)C)NC(=O)[C@H](CCCNC(=N)N)NC(=O)[C@H](Cc4ccc(O)cc4)NC(=O)[C@H](CCCCN)NC(=O)[C@H](CCSC)NC(=O)[C@H](CO)NC(=O)[C@H](Cc4cnc[nH]4)NC(=O)[C@H](CCCCN)NC3=O)C(=O)N[C@@H](CCCNC(=N)N)C(=O)N[C@@H](CCCCN)C(=O)N[C@@H]([C@@H](C)O)C(=O)N2)NC(=O)[C@H](CCCNC(=N)N)NC(=O)[C@H](CO)NC(=O)[C@H](CCCCN)NC(=O)[C@@H]2CCCN2C(=O)[C@H]([C@@H](C)CC)NC(=O)[C@H]([C@@H](C)O)NC(=O)[C@H](CC(=O)O)NC1=O`, the IC50 turned out to be 0.152 nM in assay [1], 1.1 nM in assay [2] and 0.785 nM in assay [3].

In the case of `CC[C@H](C)[C@@H]1NC(=O)[C@@H](NC(=O)[C@H](CO)NC(=O)[C@@H](N)CCCNC(=N)N)CSSC[C@@H](C(=O)O)NC(=O)[C@H]([C@@H](C)O)NC(=O)CNC(=O)[C@@H]2CSSC[C@@H]3NC(=O)[C@H](CCC(=O)O)NC(=O)[C@H](Cc4ccccc4)NC(=O)[C@H](C)NC(=O)[C@H]([C@@H](C)O)NC(=O)[C@H](CSSC[C@H](NC(=O)[C@H](Cc4ccccc4)NC(=O)[C@H](CO)NC(=O)[C@H](CC(C)C)NC(=O)[C@H](CCCNC(=N)N)NC(=O)[C@H](Cc4ccc(O)cc4)NC(=O)[C@H](CCCCN)NC(=O)[C@H](CCSC)NC(=O)[C@H](CO)NC(=O)[C@H](Cc4cnc[nH]4)NC(=O)[C@H](CCCCN)NC3=O)C(=O)N[C@@H](CCCNC(=N)N)C(=O)N[C@@H](CCCCN)C(=O)N[C@@H]([C@@H](C)O)C(=O)N2)NC(=O)[C@H](CCCNC(=N)N)NC(=O)[C@H](CO)NC(=O)[C@H](CCCCN)NC(=O)[C@@H]2CCCN2C(=O)[C@H]([C@@H](C)CC)NC(=O)[C@H]([C@@H](C)O)NC(=O)[C@H](CC(=O)O)NC1=O`, the IC50 is 0.197 nM in assay [1], 0.373 nM in assay [2] and 0.352 nM in assay [3].

In the case of `CC[C@H](C)[C@@H]1NC(=O)[C@@H](NC(=O)[C@H](CO)NC(=O)[C@@H](N)CCCNC(=N)N)CSSC[C@@H](C(=O)O)NC(=O)[C@H]([C@@H](C)O)NC(=O)CNC(=O)[C@@H]2CSSC[C@@H]3NC(=O)[C@H](CCC(N)=O)NC(=O)[C@H](Cc4ccccc4)NC(=O)[C@H](C)NC(=O)[C@H]([C@@H](C)O)NC(=O)[C@H](CSSC[C@H](NC(=O)[C@H](Cc4ccccc4)NC(=O)[C@H](CO)NC(=O)[C@H](CC(C)C)NC(=O)[C@H](CCCNC(=N)N)NC(=O)[C@H](Cc4ccc(O)cc4)NC(=O)[C@H](CCCCN)NC(=O)[C@H](CCSC)NC(=O)[C@H](CO)NC(=O)[C@H](Cc4cnc[nH]4)NC(=O)[C@H](CCC(=O)O)NC3=O)C(=O)N[C@@H](CCCNC(=N)N)C(=O)N[C@@H](CCCCN)C(=O)N[C@@H]([C@@H](C)O)C(=O)N2)NC(=O)[C@H](CCCNC(=N)N)NC(=O)[C@H](CO)NC(=O)[C@H](CCCCN)NC(=O)[C@@H]2CCCN2C(=O)[C@H]([C@@H](C)CC)NC(=O)[C@H]([C@@H](C)O)NC(=O)[C@H](CC(=O)O)NC1=O`, the concentration for half-maximal inhibition (IC50) in assay [1] came to 0.12 nM; in assay [2] it was 0.083 nM; in assay [3] it was 0.047 nM.
